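Results reflect a 48-hour exposure of cells in 96-well plates to compound at five concentrations. TGI: concentration producing complete growth inhibition.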
What was measured:
Assay in all cases: NCI anticancer screen, dose series, 48 h
HL-60(TB) leukemia = test system: HL-60(TB) leukemia
COLO 205 colon = test system: COLO 205 colon
EKVX NSCLC = test system: EKVX NSCLC
MCF7 breast = test system: MCF7 breast
DU-145 prostate = test system: DU-145 prostate
OVCAR-3 ovarian = test system: OVCAR-3 ovarian
NCI-H460 lung = test system: NCI-H460 lung
SK-OV-3 ovarian = test system: SK-OV-3 ovarian
SF-295 CNS = test system: SF-295 CNS
SW-620 colon = test system: SW-620 colon
OVCAR-4 ovarian = test system: OVCAR-4 ovarian
HOP-92 NSCLC = test system: HOP-92 NSCLC
SNB-75 CNS = test system: SNB-75 CNS
MOLT-4 leukemia = test system: MOLT-4 leukemia
CAKI-1 renal = test system: CAKI-1 renal
BT-549 breast = test system: BT-549 breast
HT29 colon = test system: HT29 colon
MALME-3M melanoma = test system: MALME-3M melanoma
SF-268 CNS = test system: SF-268 CNS
SK-MEL-5 melanoma = test system: SK-MEL-5 melanoma
NCI-H522 lung = test system: NCI-H522 lung
T-47D breast = test system: T-47D breast
A549 NSCLC = test system: A549 NSCLC
NCI/ADR-RES ovarian = test system: NCI/ADR-RES ovarian
HCT-116 colon = test system: HCT-116 colon
UACC-62 melanoma = test system: UACC-62 melanoma
OVCAR-8 ovarian = test system: OVCAR-8 ovarian
HOP-62 NSCLC = test system: HOP-62 NSCLC
UO-31 renal = test system: UO-31 renal
MDA-MB-231 breast = test system: MDA-MB-231 breast
MDA-MB-435 = test system: MDA-MB-435
IGROV1 ovarian = test system: IGROV1 ovarian
PC-3 prostate = test system: PC-3 prostate
CCRF-CEM leukemia = test system: CCRF-CEM leukemia
KM12 colon = test system: KM12 colon
SR leukemia = test system: SR leukemia
SK-MEL-28 melanoma = test system: SK-MEL-28 melanoma
UACC-257 melanoma = test system: UACC-257 melanoma
SN12C renal = test system: SN12C renal
SF-539 CNS = test system: SF-539 CNS
RXF 393 renal = test system: RXF 393 renal
K-562 leukemia = test system: K-562 leukemia
LOX IMVI melanoma = test system: LOX IMVI melanoma
U251 CNS = test system: U251 CNS
SK-MEL-2 melanoma = test system: SK-MEL-2 melanoma
NCI-H226 lung = test system: NCI-H226 lung
HCT-15 colon = test system: HCT-15 colon
TK-10 renal = test system: TK-10 renal
RPMI-8226 leukemia = test system: RPMI-8226 leukemia
SNB-19 CNS = test system: SNB-19 CNS
786-0 renal = test system: 786-0 renal
ACHN renal = test system: ACHN renal
M14 melanoma = test system: M14 melanoma
MDA-N = test system: MDA-N
A498 renal = test system: A498 renal
OVCAR-5 ovarian = test system: OVCAR-5 ovarian
NCI-H23 lung = test system: NCI-H23 lung
HS 578T breast = test system: HS 578T breast
HCC-2998 colon = test system: HCC-2998 colon

Cn1c(=O)c2[nH]c(COCc3nc4c([nH]3)c(=O)n(C)c(=O)n4C)nc2n(C)c1=O
TGI (HL-60(TB) leukemia): > 100 µM
TGI (COLO 205 colon): > 100 µM
TGI (EKVX NSCLC): > 100 µM
TGI (MCF7 breast): > 100 µM
TGI (DU-145 prostate): > 100 µM
TGI (OVCAR-3 ovarian): > 100 µM
TGI (NCI-H460 lung): > 100 µM
TGI (SK-OV-3 ovarian): > 100 µM
TGI (SF-295 CNS): > 100 µM
TGI (SW-620 colon): > 100 µM
TGI (OVCAR-4 ovarian): > 100 µM
TGI (HOP-92 NSCLC): > 100 µM
TGI (SNB-75 CNS): > 100 µM
TGI (MOLT-4 leukemia): > 100 µM
TGI (CAKI-1 renal): > 100 µM
TGI (BT-549 breast): > 100 µM
TGI (HT29 colon): > 100 µM
TGI (MALME-3M melanoma): > 100 µM
TGI (SF-268 CNS): > 100 µM
TGI (SK-MEL-5 melanoma): > 100 µM
TGI (NCI-H522 lung): > 100 µM
TGI (T-47D breast): > 100 µM
TGI (A549 NSCLC): > 100 µM
TGI (NCI/ADR-RES ovarian): > 100 µM
TGI (HCT-116 colon): > 100 µM
TGI (UACC-62 melanoma): > 100 µM
TGI (OVCAR-8 ovarian): > 100 µM
TGI (HOP-62 NSCLC): > 100 µM
TGI (UO-31 renal): > 100 µM
TGI (MDA-MB-231 breast): > 100 µM
TGI (MDA-MB-435): > 100 µM
TGI (IGROV1 ovarian): > 100 µM
TGI (PC-3 prostate): > 100 µM
TGI (CCRF-CEM leukemia): > 100 µM
TGI (KM12 colon): > 100 µM
TGI (SR leukemia): > 100 µM
TGI (SK-MEL-28 melanoma): > 100 µM
TGI (UACC-257 melanoma): > 100 µM
TGI (SN12C renal): > 100 µM
TGI (SF-539 CNS): > 100 µM
TGI (RXF 393 renal): > 100 µM
TGI (K-562 leukemia): > 100 µM
TGI (LOX IMVI melanoma): > 100 µM
TGI (U251 CNS): > 100 µM
TGI (SK-MEL-2 melanoma): > 100 µM
TGI (NCI-H226 lung): > 100 µM
TGI (HCT-15 colon): > 100 µM
TGI (TK-10 renal): > 100 µM
TGI (RPMI-8226 leukemia): > 100 µM
TGI (SNB-19 CNS): > 100 µM
TGI (786-0 renal): > 100 µM
TGI (ACHN renal): > 100 µM
TGI (M14 melanoma): > 100 µM
TGI (MDA-N): > 100 µM
TGI (A498 renal): > 100 µM
TGI (OVCAR-5 ovarian): > 100 µM
TGI (NCI-H23 lung): > 100 µM
TGI (HS 578T breast): > 100 µM

Cc1ccc2c(=O)[nH]sc2c1
TGI (HL-60(TB) leukemia): 30.8 µM
TGI (COLO 205 colon): 16.7 µM
TGI (EKVX NSCLC): 30.6 µM
TGI (MCF7 breast): 36.1 µM
TGI (DU-145 prostate): > 100 µM
TGI (OVCAR-3 ovarian): 43.5 µM
TGI (NCI-H460 lung): > 100 µM
TGI (SK-OV-3 ovarian): > 100 µM
TGI (SF-295 CNS): > 100 µM
TGI (SW-620 colon): 33.2 µM
TGI (OVCAR-4 ovarian): > 100 µM
TGI (SNB-75 CNS): > 100 µM
TGI (MOLT-4 leukemia): 23.8 µM
TGI (CAKI-1 renal): 17.8 µM
TGI (BT-549 breast): 30 µM
TGI (HT29 colon): 32.3 µM
TGI (MALME-3M melanoma): 45.6 µM
TGI (SF-268 CNS): 39 µM
TGI (SK-MEL-5 melanoma): 25.6 µM
TGI (NCI-H522 lung): 8.26 µM
TGI (T-47D breast): 41.8 µM
TGI (A549 NSCLC): 43.1 µM
TGI (NCI/ADR-RES ovarian): 55.8 µM
TGI (HCT-116 colon): > 100 µM
TGI (UACC-62 melanoma): 41.2 µM
TGI (OVCAR-8 ovarian): 33.2 µM
TGI (HOP-62 NSCLC): 36.7 µM
TGI (MDA-MB-231 breast): 31.2 µM
TGI (MDA-MB-435): 27.6 µM
TGI (IGROV1 ovarian): 35.3 µM
TGI (PC-3 prostate): 29.1 µM
TGI (CCRF-CEM leukemia): 13.9 µM
TGI (SR leukemia): 18.7 µM
TGI (SK-MEL-28 melanoma): 38.4 µM
TGI (UACC-257 melanoma): 44.1 µM
TGI (SN12C renal): 22.7 µM
TGI (SF-539 CNS): 26.9 µM
TGI (RXF 393 renal): 28.6 µM
TGI (K-562 leukemia): 47.2 µM
TGI (HCC-2998 colon): 36.9 µM
TGI (LOX IMVI melanoma): 32.9 µM
TGI (U251 CNS): 27.9 µM
TGI (SK-MEL-2 melanoma): > 100 µM
TGI (NCI-H226 lung): 45.5 µM
TGI (HCT-15 colon): 39.4 µM
TGI (TK-10 renal): 33.9 µM
TGI (RPMI-8226 leukemia): 45.1 µM
TGI (SNB-19 CNS): > 100 µM
TGI (786-0 renal): 15.4 µM
TGI (ACHN renal): 21.6 µM
TGI (M14 melanoma): 23.9 µM
TGI (MDA-N): 27 µM
TGI (A498 renal): > 100 µM
TGI (OVCAR-5 ovarian): > 100 µM
TGI (NCI-H23 lung): 42.4 µM
TGI (HS 578T breast): 40 µM
